Where “and” joins values, the source holds several entries; their conditions need not be identical. Equal entries are not always repeated.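 A five-concentration, 48-hour dose response in 96-well plates underlies each endpoint, interpolated linearly between surrounding concentrations. At the GI50, growth is halved. TGI: concentration producing complete growth inhibition.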 Where a SMILES comes first, the peptide text is derived from it. [ ]: non-standard residue; d: D form. The star is where a group is joined. Bn2Val = CC(C)[C@@H](C(=O)*)N(Cc1ccccc1)Cc1ccccc1; NH(3,4-diMeO-benzyl) = COc1ccc(CN*)cc1OC; NMeV = CN[C@H](C(=O)O)C(C)C; dNMeA = CN[C@H](C)C(=O)O
How the values were obtained:
Test in all cases: NCI anticancer screen, dose series, 48 h
[1] = system: HCC-2998 colon
[2] = system: UACC-257 melanoma
[3] = system: HT29 colon
[4] = system: IGROV1 ovarian
[5] = system: OVCAR-5 ovarian
[6] = system: CCRF-CEM leukemia
[7] = system: 786-0 renal
[8] = system: SF-539 CNS
[9] = system: TK-10 renal
[10] = system: SK-MEL-2 melanoma

Row | SMILES | GI50 [1] [µM] | TGI [1] [µM] | GI50 [2] [µM] | TGI [2] | GI50 [3] [µM] | TGI [3] | GI50 [4] [µM] | TGI [4] | GI50 [5] [µM] | TGI [5] | GI50 [6] [µM] | TGI [6] | GI50 [7] [µM] | TGI [7] | GI50 [8] [µM] | TGI [8] | GI50 [9] [µM] | TGI [9] | GI50 [10] [µM] | TGI [10]
1 | CC(=O)c1ccc(N(/C=C/C(=O)C(F)(F)F)CC(=O)c2ccc(Cl)c(Cl)c2)cc1 | 18.5 | 34.9 | 15.2 | 29.4 µM | 24.4 | > 100 µM | 13.9 | 28.4 µM | 18.6 | 35.9 µM | 10.4 | 36.9 µM | 17.8 | 32 µM | 20.5 | 36.6 µM | 15.8 | 32.8 µM | 15.3 | 30.4 µM
2 | O=C1c2ccccc2C(=O)c2c1ccc1[nH]c(CCl)nc21 | 3.41 | 12.7 | 4.23 | 15.1 µM | 1.89 | 4.77 µM | 2.03 | 6.59 µM | 10.2 | 24.5 µM | 2.19 | 6.42 µM | 2.91 | 9.38 µM | 3.16 | 11.6 µM | 2.91 | 9.79 µM | 3.26 | 12.2 µM
3 | C[C@]12CCC(=O)C=C1CC[C@@H]1C2CC[C@]2(C)NC(=O)C(C#N)CC12 (stereo partly drawn) |  | > 100 |  | > 100 µM |  | > 100 µM |  | > 100 µM |  | > 100 µM |  | > 100 µM |  | > 100 µM |  | > 100 µM |  | > 100 µM |  | > 100 µM
4 | CC1=CCCC(OC(N)=O)C1 (stereo not drawn) |  | > 100 |  | > 100 µM |  | > 100 µM |  | > 100 µM |  | > 100 µM |  | > 100 µM |  | > 100 µM |  | > 100 µM |  | > 100 µM |  | > 100 µM
5 | COc1ccc(CNC(=O)[C@@H](C)N(C)C(=O)[C@@H]2CCCN2C(=O)[C@H](C(C)C)N(C)C(=O)[C@@H](NC(=O)[C@H](C(C)C)N(Cc2ccccc2)Cc2ccccc2)C(C)C)cc1OC (Bn2Val-V[NMeV]P[dNMeA]-{NH(3,4-diMeO-benzyl)}) |  | 21.2 | 10.2 | 21.8 µM and 23.5 µM | 3.08 | 12.2 µM and 10.6 µM | 11.1 | 13.6 µM and 28.3 µM | 2.79 | 16.6 µM and 9.77 µM | 0.756 | 16.9 µM and 44.2 µM | 11.4 | 21.3 µM and 28.3 µM | 5.23 | 16.6 µM and 17.8 µM |  | 50 µM and 61.6 µM | 4.38 | 15.1 µM and 15 µM
6 | C1CN2N3CCCC23C1 (stereo not drawn) |  | > 100 |  | > 100 µM |  | > 100 µM |  | > 100 µM |  | > 100 µM |  | > 100 µM |  | > 100 µM |  | > 100 µM |  | > 100 µM |  | > 100 µM
7 | CN1CCCNCCN(CCc2ccccn2)CCCN(C)CC1 |  | > 100 |  | > 100 µM |  | > 100 µM |  | > 100 µM |  | > 100 µM |  | > 60 µM |  | 53.9 µM |  | > 100 µM |  | > 100 µM |  | > 100 µM
8 | CC(C)(C)C1=NC(S)NC(CCC(=O)Nc2ccccc2[N+](=O)[O-])=C1 (stereo not drawn) |  | > 100 |  | > 100 µM |  | > 100 µM |  | > 100 µM |  | > 100 µM |  | > 100 µM |  | > 100 µM |  | > 100 µM |  | > 100 µM |  | > 100 µM
9 | c1ccc(-c2nnc(-c3nn(-c4ccccc4)c4nc5ccccc5nc34)o2)cc1 |  | > 100 |  | > 100 µM |  | > 100 µM |  | > 100 µM |  | > 100 µM |  | 85.5 µM |  | > 100 µM |  | > 100 µM |  | > 100 µM |  | > 100 µM
10 | CC(=O)OCCc1cccnc1/C=N/O |  | > 100 |  | > 100 µM |  | > 100 µM |  | > 100 µM |  | > 100 µM |  | > 100 µM |  | > 100 µM |  | > 100 µM |  | > 100 µM |  | > 100 µM
11 | O=C(O/N=C1/CCC/C1=C\c1ccccc1)c1ccc([N+](=O)[O-])cc1 |  | 25.7 |  | > 100 µM |  | > 100 µM |  | > 100 µM |  | > 100 µM |  | > 100 µM |  | > 100 µM |  | > 100 µM |  | > 100 µM |  | > 100 µM
12 | COC(=O)c1c2c(c(C)[n+]([O-])c1C)C(=O)C=CC2=O | 1.64 | 3.13 | 1.57 | 3.34 µM | 2.41 | 6.54 µM | 1.74 | 4.25 µM | 1.76 | 3.23 µM | 0.0559 | 7.3 µM | 2.06 | 4.51 µM | 1.8 | 3.2 µM | 2.74 | 7.74 µM | 1.89 | 3.99 µM
13 | NC1(CCCCCCCCCCC(=O)O)CNCCNCCNCCNC1 |  | 46 |  | > 100 µM |  | > 100 µM |  | > 100 µM |  | 45.6 µM |  | > 100 µM |  | > 100 µM |  | > 100 µM |  | > 100 µM |  | > 100 µM
14 | COc1cc([C@@H]2c3cc4c(cc3[C@@H](NC(=O)c3cccc([N+](=O)[O-])c3)C3COC(=O)[C@@H]32)OCO4)cc(OC)c1O (stereo partly drawn) |  | 3.17 |  | > 100 µM |  | 11.7 µM |  | > 37.4 µM |  | 8.54 µM |  | > 100 µM |  | 0.833 µM |  | 1.33 µM |  | 9.94 µM |  | 7.23 µM
15 | CCCCn1/c(=N/C(=S)N(C)C)ss/c1=N\C(=S)N(C)C |  | > 100 |  | > 100 µM |  | > 100 µM |  | > 100 µM |  | > 100 µM |  | > 100 µM |  | > 100 µM |  | > 100 µM |  | > 100 µM |  | > 100 µM
16 | COc1ccc(CN2CCCC(C(=O)c3ccc(C(F)(F)F)cc3)C2)c(O)c1 (stereo not drawn) | 24 | 56.3 | 24.2 | 74.4 µM | 14.4 | 33.9 µM | 52.6 | > 100 µM | 20.2 | 66.1 µM | 35.2 | > 100 µM | 17.3 | 40.4 µM | 18.8 | 46.1 µM | 31.3 | 88.7 µM | 27.5 | 65.8 µM
17 | O=C1NC(=O)C2C(=O)NC(=O)C1C2(c1ccccc1)c1ccc(Cl)cc1 (stereo not drawn) |  | > 100 |  | > 100 µM |  | > 100 µM |  | > 100 µM |  | > 100 µM |  | > 100 µM |  | > 100 µM |  | > 100 µM |  | > 100 µM |  | > 100 µM
18 | CN(C)c1ccc(/C=C2\C[N+](C)(C)C/C(=C\c3ccc(N(C)C)cc3)C2=O)cc1 |  | 22.1 |  | 32.4 µM |  | 24 µM |  | 18 µM |  | 96.5 µM |  | 38.9 µM |  | 85.3 µM |  | 49.9 µM |  | > 100 µM |  | 36.1 µM
19 | N#Cc1cnn2ccn(C3OC(COC(=O)c4ccccc4)C(OC(=O)c4ccccc4)C3OC(=O)c3ccccc3)c12 (stereo not drawn) |  | > 21.5 |  | > 21.5 µM |  | > 21.5 µM |  | > 21.5 µM |  | > 21.5 µM |  | > 21.5 µM |  | > 21.5 µM |  | > 21.5 µM |  | > 31.6 µM |  | 0.843 µM
20 | C[Si](C)(C)c1ccc(CC2(Cc3ccc([Si](C)(C)C)cc3)CCNC2)cc1 |  | 4.43 |  | 5.41 µM |  | 4.08 µM |  | 7.12 µM |  | 15.4 µM |  | 48.1 µM |  | 3.38 µM |  | 10.4 µM |  | 35.5 µM |  | 3.41 µM
21 | OCc1c(-c2cccc3ccccc23)sc(-c2cccc3ccccc23)c1CO |  | 33.9 |  | 25.6 µM |  | 31.5 µM |  | 28 µM |  | 30.9 µM |  | 46.5 µM |  | 27.4 µM |  | 28.8 µM |  | 26.9 µM |  | 28.2 µM
